# Reference: ChEMBL document CHEMBL3045111, “Synthesis and herbicidal activities of novel 3-(substituted benzyloxy or phenoxy)-6-methyl-4-(3-trifluoromethylphenyl)pyridazine derivatives” (2012)
# Active and inactive are the calls of the source. The rule behind the calls is not given here.
# Tests used:
# [1] = system: Brassica rapa subsp. oleifera; experiment: Post-emergence herbicidal activity against one-leaf stage Brassica rapa subsp. oleifera under greenhouse condition at 150 g /ha measured after 24 days by spray method; type: functional; conditions: 576 h, read-out: GI
# Amaranthus retroflexus [2] = experiment: Post-emergence herbicidal activity against one-leaf stage Amaranthus retroflexus under greenhouse condition assessed as complete bleaching of leaves at 600 g /ha measured after 24 days by spray method; type: functional, organism-based
# Amaranthus retroflexus [3] = experiment: Post-emergence herbicidal activity against one-leaf stage Amaranthus retroflexus under greenhouse condition assessed as complete bleaching of leaves at 150 g /ha measured after 24 days by spray method; type: functional, organism-based
# [4] = system: Brassica rapa subsp. oleifera; experiment: Post-emergence herbicidal activity against one-leaf stage Brassica rapa subsp. oleifera under greenhouse condition assessed as complete bleaching of leaves at 150 g /ha measured after 24 days by spray method; type: functional, organism-based
# Amaranthus retroflexus [5] = experiment: Post-emergence herbicidal activity against one-leaf stage Amaranthus retroflexus under greenhouse condition at 600 g /ha measured after 24 days by spray method; type: functional; conditions: 576 h, read-out: GI
# [6] = system: Brassica rapa subsp. oleifera; experiment: Post-emergence herbicidal activity against one-leaf stage Brassica rapa subsp. oleifera under greenhouse condition at 600 g /ha measured after 24 days by spray method; type: functional; conditions: 576 h, read-out: GI
# [7] = system: Brassica rapa subsp. oleifera; experiment: Post-emergence herbicidal activity against one-leaf stage Brassica rapa subsp. oleifera under greenhouse condition assessed as complete bleaching of leaves at 600 g /ha measured after 24 days by spray method; type: functional, organism-based
# [8] = system: Brassica rapa subsp. oleifera; experiment: Pre-emergence herbicidal activity against Brassica rapa subsp. oleifera under greenhouse condition at 750 g /ha measured after 24 days by spray method; type: functional; conditions: 576 h, read-out: GI
# Amaranthus retroflexus [9] = experiment: Post-emergence herbicidal activity against one-leaf stage Amaranthus retroflexus under greenhouse condition at 300 g /ha measured after 24 days by spray method; type: functional; conditions: 576 h, read-out: GI
# Amaranthus retroflexus [10] = experiment: Post-emergence herbicidal activity against one-leaf stage Amaranthus retroflexus under greenhouse condition at 150 g /ha measured after 24 days by spray method; type: functional; conditions: 576 h, read-out: GI
# Amaranthus retroflexus [11] = experiment: Post-emergence herbicidal activity against one-leaf stage Amaranthus retroflexus under greenhouse condition assessed as complete bleaching of leaves at 300 g /ha measured after 24 days by spray method; type: functional, organism-based
# Spirodela polyrhiza [12] = experiment: Bleaching herbicidal activity in Spirodela polyrhiza fronds cultured in compound-containing in medium assessed as chlorophyll inhibition at 10 ug/ml after 7 days; type: functional; conditions: 168 h
# Echinochloa crus-galli [13] = experiment: Pre-emergence herbicidal activity against Echinochloa crus-galli (barnyard grass) under greenhouse condition at 750 g /ha measured after 24 days by spray method; type: functional; conditions: 576 h, read-out: GI
# Amaranthus retroflexus [14] = experiment: Post-emergence herbicidal activity against one-leaf stage Amaranthus retroflexus under greenhouse condition assessed as complete bleaching of leaves at 75 g /ha measured after 24 days by spray method; type: functional, organism-based
# Spirodela polyrhiza [15] = experiment: Bleaching herbicidal activity in Spirodela polyrhiza fronds cultured in compound-containing in medium assessed as chlorophyll inhibition at 1 ug/ml after 7 days; type: functional; conditions: 168 h
# Echinochloa crus-galli [16] = experiment: Post-emergence herbicidal activity against one-leaf stage of Echinochloa crus-galli (barnyard grass) under greenhouse condition at 750 g /ha measured after 24 days by spray method; type: functional; conditions: 576 h, read-out: GI
# Amaranthus retroflexus [17] = experiment: Pre-emergence herbicidal activity against Amaranthus retroflexus under greenhouse condition at 750 g /ha measured after 24 days by spray method; type: functional; conditions: 576 h, read-out: GI
# Amaranthus retroflexus [18] = experiment: Post-emergence herbicidal activity against one-leaf stage Amaranthus retroflexus under greenhouse condition at 75 g /ha measured after 24 days by spray method; type: functional; conditions: 576 h, read-out: GI
# [19] = system: Brassica rapa subsp. oleifera; experiment: Post-emergence herbicidal activity against one-leaf stage Brassica rapa subsp. oleifera under greenhouse condition assessed as complete bleaching of leaves at 75 g /ha measured after 24 days by spray method; type: functional, organism-based
# Amaranthus retroflexus [20] = experiment: Post-emergence herbicidal activity against one-leaf stage of Amaranthus retroflexus under greenhouse condition at 750 g /ha measured after 24 days by spray method; type: functional; conditions: 576 h, read-out: GI
# [21] = system: Brassica rapa subsp. oleifera; experiment: Post-emergence herbicidal activity against one-leaf stage Brassica rapa subsp. oleifera under greenhouse condition at 75 g /ha measured after 24 days by spray method; type: functional; conditions: 576 h, read-out: GI
# [22] = system: Brassica rapa subsp. oleifera; experiment: Post-emergence herbicidal activity against one-leaf stage Brassica rapa subsp. oleifera under greenhouse condition at 300 g /ha measured after 24 days by spray method; type: functional; conditions: 576 h, read-out: GI
# Digitaria [23] = experiment: Post-emergence herbicidal activity against one-leaf stage of Digitaria adscendens under greenhouse condition at 750 g /ha measured after 24 days by spray method; type: functional; conditions: in Digitaria adscendens, 576 h, read-out: GI
# [24] = system: Brassica rapa subsp. oleifera; experiment: Post-emergence herbicidal activity against one-leaf stage Brassica rapa subsp. oleifera under greenhouse condition at 750 g /ha measured after 24 days by spray method; type: functional; conditions: 576 h, read-out: GI
# [25] = system: Brassica rapa subsp. oleifera; experiment: Post-emergence herbicidal activity against one-leaf stage Brassica rapa subsp. oleifera under greenhouse condition assessed as complete bleaching of leaves at 300 g /ha measured after 24 days by spray method; type: functional, organism-based
# Digitaria [26] = experiment: Pre-emergence herbicidal activity against Digitaria adscendens under greenhouse condition at 750 g /ha measured after 24 days by spray method; type: functional; conditions: in Digitaria adscendens, 576 h, read-out: GI
# [27] = system: Brassica rapa subsp. oleifera; experiment: Post-emergence herbicidal activity against one-leaf stage Brassica rapa subsp. oleifera under greenhouse condition at 15 g /ha measured after 24 days by spray method; type: functional; conditions: 576 h, read-out: GI
# [28] = system: Brassica rapa subsp. oleifera; experiment: Post-emergence herbicidal activity against one-leaf stage Brassica rapa subsp. oleifera under greenhouse condition at 7.5 g /ha measured after 24 days by spray method; type: functional; conditions: 576 h, read-out: GI
# Amaranthus retroflexus [29] = experiment: Post-emergence herbicidal activity against one-leaf stage Amaranthus retroflexus under greenhouse condition assessed as complete bleaching of leaves at 7.5 g /ha measured after 24 days by spray method; type: functional, organism-based
# [30] = system: Brassica rapa subsp. oleifera; experiment: Post-emergence herbicidal activity against one-leaf stage Brassica rapa subsp. oleifera under greenhouse condition at 30 g /ha measured after 24 days by spray method; type: functional; conditions: 576 h, read-out: GI
# Amaranthus retroflexus [31] = experiment: Post-emergence herbicidal activity against one-leaf stage Amaranthus retroflexus under greenhouse condition at 30 g /ha measured after 24 days by spray method; type: functional; conditions: 576 h, read-out: GI
# Amaranthus retroflexus [32] = experiment: Post-emergence herbicidal activity against one-leaf stage Amaranthus retroflexus under greenhouse condition assessed as complete bleaching of leaves at 15 g /ha measured after 24 days by spray method; type: functional, organism-based
# Amaranthus retroflexus [33] = experiment: Post-emergence herbicidal activity against one-leaf stage Amaranthus retroflexus under greenhouse condition at 60 g /ha measured after 24 days by spray method; type: functional; conditions: 576 h, read-out: GI
# [34] = system: Brassica rapa subsp. oleifera; experiment: Post-emergence herbicidal activity against one-leaf stage Brassica rapa subsp. oleifera under greenhouse condition assessed as complete bleaching of leaves at 30 g /ha measured after 24 days by spray method; type: functional, organism-based
# [35] = system: Brassica rapa subsp. oleifera; experiment: Post-emergence herbicidal activity against one-leaf stage Brassica rapa subsp. oleifera under greenhouse condition assessed as complete bleaching of leaves at 15 g /ha measured after 24 days by spray method; type: functional, organism-based
# Amaranthus retroflexus [36] = experiment: Post-emergence herbicidal activity against one-leaf stage Amaranthus retroflexus under greenhouse condition at 7.5 g /ha measured after 24 days by spray method; type: functional; conditions: 576 h, read-out: GI
# [37] = system: Brassica rapa subsp. oleifera; experiment: Post-emergence herbicidal activity against one-leaf stage Brassica rapa subsp. oleifera under greenhouse condition assessed as complete bleaching of leaves at 7.5 g /ha measured after 24 days by spray method; type: functional, organism-based
# Amaranthus retroflexus [38] = experiment: Post-emergence herbicidal activity against one-leaf stage Amaranthus retroflexus under greenhouse condition at 15 g /ha measured after 24 days by spray method; type: functional; conditions: 576 h, read-out: GI
# Amaranthus retroflexus [39] = experiment: Post-emergence herbicidal activity against one-leaf stage Amaranthus retroflexus under greenhouse condition assessed as complete bleaching of leaves at 30 g /ha measured after 24 days by spray method; type: functional, organism-based
# [40] = system: Brassica rapa subsp. oleifera; experiment: Post-emergence herbicidal activity against one-leaf stage Brassica rapa subsp. oleifera under greenhouse condition at 60 g /ha measured after 24 days by spray method; type: functional; conditions: 576 h, read-out: GI
# Amaranthus retroflexus [41] = experiment: Post-emergence herbicidal activity against one-leaf stage Amaranthus retroflexus under greenhouse condition assessed as complete bleaching of leaves at 60 g /ha measured after 24 days by spray method; type: functional, organism-based
# [42] = system: Brassica rapa subsp. oleifera; experiment: Post-emergence herbicidal activity against one-leaf stage Brassica rapa subsp. oleifera under greenhouse condition assessed as complete bleaching of leaves at 60 g /ha measured after 24 days by spray method; type: functional, organism-based
smiles,measurement,setting,value
Cc1cc(-c2cccc(C(F)(F)F)c2)c(Oc2ccc(F)cc2)nn1,inhibition of growth at 150 g/ha,[1],61%
same,Activity,Amaranthus retroflexus [2],Active
same,Activity,Amaranthus retroflexus [3],Active
same,Activity,[4],Active
same,inhibition of growth at 600 g/ha,Amaranthus retroflexus [5],100%
same,inhibition of growth at 600 g/ha,[6],83%
same,Activity,[7],Active
same,inhibition of growth at 750 g/ha,[8],98%
same,inhibition of growth at 300 g/ha,Amaranthus retroflexus [9],90%
same,inhibition of growth at 150 g/ha,Amaranthus retroflexus [10],79%
same,Activity,Amaranthus retroflexus [11],Active
same,inhibition at 10 µg/mL,Spirodela polyrhiza [12],91%
same,inhibition of growth at 750 g/ha,Echinochloa crus-galli [13],84%
same,Activity,Amaranthus retroflexus [14],Active
same,inhibition at 1 µg/mL,Spirodela polyrhiza [15],75%
same,inhibition of growth at 750 g/ha,Echinochloa crus-galli [16],35%
same,inhibition of growth at 750 g/ha,Amaranthus retroflexus [17],100%
same,inhibition of growth at 75 g/ha,Amaranthus retroflexus [18],64%
same,Activity,[19],Active
same,inhibition of growth at 750 g/ha,Amaranthus retroflexus [20],96%
same,inhibition of growth at 75 g/ha,[21],53%
same,inhibition of growth at 300 g/ha,[22],70%
same,inhibition of growth at 750 g/ha,Digitaria [23],68%
same,inhibition of growth at 750 g/ha,[24],95%
same,Activity,[25],Active
same,inhibition of growth at 750 g/ha,Digitaria [26],96%
Cc1cc(-c2cccc(C(F)(F)F)c2)c(Oc2ccc(Br)cc2)nn1,inhibition of growth at 150 g/ha,[1],100%
same,Activity,Amaranthus retroflexus [2],Active
same,inhibition of growth at 15 g/ha,[27],94%
same,inhibition of growth at 7.5 g/ha,[28],68%
same,Activity,Amaranthus retroflexus [3],Active
same,Activity,[4],Active
same,inhibition of growth at 600 g/ha,Amaranthus retroflexus [5],100%
same,Activity,Amaranthus retroflexus [29],Active
same,inhibition of growth at 600 g/ha,[6],100%
same,Activity,[7],Active
same,inhibition of growth at 30 g/ha,[30],100%
same,inhibition of growth at 30 g/ha,Amaranthus retroflexus [31],35%
same,inhibition of growth at 750 g/ha,[8],61%
same,inhibition of growth at 300 g/ha,Amaranthus retroflexus [9],100%
same,Activity,Amaranthus retroflexus [32],Active
same,inhibition of growth at 150 g/ha,Amaranthus retroflexus [10],100%
same,Activity,Amaranthus retroflexus [11],Active
same,inhibition at 10 µg/mL,Spirodela polyrhiza [12],90%
same,inhibition of growth at 60 g/ha,Amaranthus retroflexus [33],51%
same,inhibition of growth at 750 g/ha,Echinochloa crus-galli [13],60%
same,Activity,Amaranthus retroflexus [14],Active
same,inhibition at 1 µg/mL,Spirodela polyrhiza [15],80%
same,inhibition of growth at 750 g/ha,Echinochloa crus-galli [16],60%
same,inhibition of growth at 750 g/ha,Amaranthus retroflexus [17],94%
same,inhibition of growth at 75 g/ha,Amaranthus retroflexus [18],88%
same,Activity,[34],Active
same,Activity,[19],Active
same,Activity,[35],Active
same,inhibition of growth at 750 g/ha,Amaranthus retroflexus [20],100%
same,inhibition of growth at 7.5 g/ha,Amaranthus retroflexus [36],25%
same,inhibition of growth at 75 g/ha,[21],100%
same,inhibition of growth at 300 g/ha,[22],100%
same,Activity,[37],Active
same,inhibition of growth at 15 g/ha,Amaranthus retroflexus [38],28%
same,inhibition of growth at 750 g/ha,Digitaria [23],93%
same,inhibition of growth at 750 g/ha,[24],94%
same,Activity,Amaranthus retroflexus [39],Active
same,Activity,[25],Active
same,inhibition of growth at 60 g/ha,[40],100%
same,Activity,Amaranthus retroflexus [41],Active
same,inhibition of growth at 750 g/ha,Digitaria [26],64%
same,Activity,[42],Active
